The molecules below were run on Raji cells, a Burkitt's lymphoma (BL) cell line (assay: Viability of Raji cells). Conditions: 100 nM, 72 h.
Type: cell-based, human
In the case of `COC(=O)[C@@]12OC[C@]34[C@H]([C@@H](O)[C@@H]1O)[C@@]1(C)CC(=O)C(OC(=O)[C@H](C)NC(=O)OC(C)(C)C)=C(C)[C@@H]1C[C@H]3OC(=O)[C@H](OC(=O)C=C(C)C)[C@@H]24` [Compound 6], the “inhibition of viability of Raji cells” value was “moderate inhibition”.
In the case of `COC(=O)[C@@]12OC[C@]34[C@H]([C@@H](O)[C@@H]1O)[C@@]1(C)CC(=O)C(OC(=O)[C@@H]5CCCN5C(=O)OC(C)(C)C)=C(C)[C@@H]1C[C@H]3OC(=O)[C@H](OC(=O)C=C(C)C)[C@@H]24` [Compound 11], the “inhibition of viability of Raji cells” value was “moderate inhibition”.
With `COC(=O)[C@@]12OC[C@]34[C@H]([C@@H](O)[C@@H]1O)[C@@]1(C)CC(=O)C(OC(=O)CNC(=O)CN)=C(C)[C@@H]1C[C@H]3OC(=O)[C@H](OC(=O)C=C(C)C)[C@@H]24` [Compound 20] the “inhibition of viability of Raji cells” value was “potent activities comparable to or higher than the parent brusatol”.
`COC(=O)[C@@]12OC[C@]34[C@H]([C@@H](O)[C@@H]1O)[C@@]1(C)CC(=O)C(OC(=O)C[C@H](C)NC(=O)C[C@H](C)N)=C(C)[C@@H]1C[C@H]3OC(=O)[C@H](OC(=O)C=C(C)C)[C@@H]24` [Compound 21] was tested, and the “inhibition of viability of Raji cells” value was “potent activities comparable to or higher than the parent brusatol”.
In the case of `COC(=O)[C@@]12OC[C@]34[C@H]([C@@H](O)[C@@H]1O)[C@@]1(C)CC(=O)C(OC(=O)[C@H](C)NC(=O)[C@H](C)N)=C(C)[C@@H]1C[C@H]3OC(=O)[C@H](OC(=O)C=C(C)C)[C@@H]24` [Compound 22], the “inhibition of viability of Raji cells” value was “not active”.
`COC(=O)[C@@]12OC[C@]34[C@H]([C@@H](O)[C@@H]1O)[C@@]1(C)CC(=O)C(OC(=O)CNC(=O)CNC(=O)CN)=C(C)[C@@H]1C[C@H]3OC(=O)[C@H](OC(=O)C=C(C)C)[C@@H]24` [Compound 23] was tested, and the “inhibition of viability of Raji cells” value was “potent activities comparable to or higher than the parent brusatol”.
In the case of `COC(=O)[C@@]12OC[C@]34[C@H]([C@@H](O)[C@@H]1O)[C@@]1(C)CC(=O)C(OC(=O)C[C@H](C)NS(C)(=O)=O)=C(C)[C@@H]1C[C@H]3OC(=O)[C@H](OC(=O)C=C(C)C)[C@@H]24` [Compound 29], the “inhibition of viability of Raji cells” value was “lost activities”.
With `COC(=O)[C@@]12OC[C@]34[C@H]([C@@H](O)[C@@H]1O)[C@@]1(C)CC(=O)C(OCC(=O)NCCN)=C(C)[C@@H]1C[C@H]3OC(=O)[C@H](OC(=O)C=C(C)C)[C@@H]24` [Compound 40] the “inhibition of viability of Raji cells” value was “moderate activity”.
For `COC(=O)[C@@]12OC[C@]34[C@H]([C@@H](O)[C@@H]1O)[C@@]1(C)CC(=O)C(OC(=O)CNC(=O)OC(C)(C)C)=C(C)[C@@H]1C[C@H]3OC(=O)[C@H](OC(=O)C=C(C)C)[C@@H]24` [UPB-15], the “inhibition of viability of Raji cells” value was “moderate inhibition”.
`COC(=O)[C@@]12OC[C@]34[C@H]([C@@H](O)[C@@H]1O)[C@@]1(C)CC(=O)C(OC(=O)C[C@H](C)N)=C(C)[C@@H]1C[C@H]3OC(=O)[C@H](OC(=O)C=C(C)C)[C@@H]24` [UPB-26, 3-(3-β-HoAla)-brusatol] was tested, and the “inhibition of viability of Raji cells” value was “potent activities comparable to or higher than the parent brusatol”.
With `COC(=O)[C@@]12OC[C@]34[C@H]([C@@H](O)[C@@H]1O)[C@@]1(C)CC(=O)C(OC(=O)[C@@H]5CCCN5)=C(C)[C@@H]1C[C@H]3OC(=O)[C@H](OC(=O)C=C(C)C)[C@@H]24` [UPB-31] the “inhibition of viability of Raji cells” value was “potent activities comparable to or higher than the parent brusatol”.

The molecules below were run on MOLT-4, SU-DHL-6, SU-DHL-10, RPMI-8226 and LCL1 cells (assay: Activity on five other hematologic malignancy derived cell lines). Conditions: MOLT-4, SU-DHL-6, SU-DHL-10, RPMI-8226, LCL1.
Type: cell-based, human
For `COC(=O)[C@@]12OC[C@]34[C@H]([C@@H](O)[C@@H]1O)[C@@]1(C)CC(=O)C(OCC(=O)NCCN)=C(C)[C@@H]1C[C@H]3OC(=O)[C@H](OC(=O)C=C(C)C)[C@@H]24` [Compound 40], the “activity on five other cell lines” value was “moderate to good activities”.

These molecules were tested on NOD/SCID mice (assay: not given). Conditions: mouse, in vivo.
`COC(=O)[C@@]12OC[C@]34[C@H]([C@@H](O)[C@@H]1O)[C@@]1(C)CC(=O)C(OC(=O)C[C@H](C)N)=C(C)[C@@H]1C[C@H]3OC(=O)[C@H](OC(=O)C=C(C)C)[C@@H]24` [UPB-26, 3-(3-β-HoAla)-brusatol] was tested, and the “mice survived (of 4 per group)” value was “four”.
